Results reported in patent USRE36385E, “Glucopyranose derivatives” (Ono Pharmaceutical Co., Ltd., priority 1985, dated 1999).

Tests used:
Mice L-M cells = test: Inducing activities of TNF in vitro (cytotoxicity of serum from treated mice); type: cell-based, mice (ICR male mice serum; mice L-M cells); conditions: Mus musculus, iv; 10 μg via tail vein, serum 90 mins after; L-M cells 48 hrs; read-out: Cytotoxicities
Description: (2) Inducing activities of TNF in vitro
Inducing activity of TNF in vitro was measured by the following test system.
Corye parvum (manufactured by Ribi Immuno Chem. Research Inc.) was administered in ICR male mice 6-weeks old through the tail vein as priming agent. Ten days later, the compounds of the present invention (10 μg) were administered through tail vein as eliciting agent. 90 mins after the administration, blood was collected from the hearts, and blood serums were separated.
Mice L-M cells (10^4 /100 μl/well) suspended in a mixture of the diluted serum solution (100 μl/well) and RPMI 1640 cultivating solution (10% FEBS and 0.2% glucose; manufactured by Nissui Pharmaceutical Co.) were cultivated in an atmosphere of a mixed gas of 5% CO2 -[…], for 48 hrs at 37° C., after adding ^3 H-tymidine taken (0.5 μCi/20 μl/well). Amounts of ^3 H-tymidine taken into cells during the cultivation were measured.
Inducing activities of TNF were measured by cytotoxicity calculated as follows: [formula]

lympha cells = test: Mitogenic activity in vitro (Blastogenic index); type: cell-based, C3H/He male mice; conditions: Mus musculus, Lymphocyte; terminal concentration 1 μg/ml; ratio of 3H-tymidine uptake vs blank control; read-out: Blastgenic Index
Description: (1) Mitogenic activity in vitro
Mitogenic activity means activity of activating mitogenic cell division, and in this test system, the amount of tymidine taken into lympha cells was measured and a ratio determined against a blank control call (Blastogenic index) was calculated.
For example, adding the compound prepared in example 1(c) to the test system induced 30 times the amount of tymidine taken into the lympha cells versus the control.
The amounts were measured by density of a radiolabel.
Mytogenic activity in vitro was measured by the following method (See Procedure Method of Immunoexperiment pp 315 published by Japan Immunology Society).
C3H/He male mice 6 weeks old were killed by bloodletting, and their spleens were isolated and homogenized. Homogenizing liquids were filtered with gauze, and suspending cells were prepared with PBS solution. After washing, lymphacytes fractions were gathered with lympholight M. Lymphacytes were suspended in RPMI 1640 cultivation solution (10% FEBS), and the solution was divided into 5×10^5 cells/180 μl/wells. Ten times concentration of the terminal concentration (1 μg/ml) of the compounds of the present invention were added with 20 μl portions to each of the wells.
After cultivation, ^3 H-tymidine 0.5 μCi/20 μl was added to the each cells. Cultivation was continued at 37° C. for another 24 hrs, and amounts of ^3 H-tymidine taken into the cells were measured. Mitogenic activities were calculated as by Blastogenic index in as follows. [formula]

RLδ1 tumor = test: Anti-tumor effect on Balb/C mice inoculated with RLδ1 tumor; type: in vivo, female Balb/C mice; conditions: for Survival period: Day 10, day ± standard error; for Appearent tumor weight: g ± standard error
Description: (2) Anti-tumor effect on Balb/C mice inoculated with RLδ1 tumor.
Tumor cells which had been maintained in ascites of Balb/C mouse generation after generation was used. One group is consisting of six female balb/C mice. RLδ1 tumor (1×10^5 cells/0.05 ml) was inoculated into left side of female mice of 6-week old (body weight: 18~20 g). Ten days after, when tumore size came to 7~10 mm, compound of example No. 1(1) or 1(t) was administered by i.p. route (Day 10). Dose of test compound was 1 and 3 mg/body dand each test compound solution volume was 10 ml/kg. Antitumore effect is estimated by survival period and tumor appearent weight.
Test results about survival period and tumor apparent weight are shown in the following Tables II(3) and II(4), respectively.

Row | SMILES | cytotoxicity at 0.01 mg (Mice L-M cells) | fold induction at 1 µg/mL (lympha cells) | also measured
1 | CCCCCCCCCCCCCC(=O)OC(CCCCCCCCCCC)CC(=O)N[C@H]1COC[C@@H](OS(=O)(=O)O)[C@@H]1OC(=O)CCCCCCCCCCCCC (single isomer, unassigned) [3(b), 2-deoxy-2-[3-tetradecanoyloxytetradecanoyl]amino-3-O-tetradecanoyl-4-O-sulfo-1,5-anhydro-D-xylitol] | 30.2% | 13.7 | 
2 | CCCCCCCCCCCC(CC(=O)N[C@H]1COC[C@@H](OS(=O)(=O)O)[C@@H]1OC(=O)CCCCCCCCc1ccccc1)OC(=O)CCCCCCCCc1ccccc1 (single isomer, unassigned) [Example 3, 2-deoxy-2-[3-(9-phenylnonanoyl)oxytetradecanoyl]amino-3-O-(9-phenylnonanoyl)-4-O-sulfo-1,5-anhydro-D-xylitol] | 50.7% |  | 
3 | CCCCCCCCCCC[C@@H](CC(=O)N[C@H]1C(O)O[C@H](CO)[C@@H](OS(=O)(=O)O)[C@@H]1OC(=O)CCCCCCCCCc1ccccc1)OC(=O)CCCCCCCCCc1ccccc1 (stereo partly drawn) [1(d), 2-deoxy-2-[3S-(10-phenyldecanoyloxy)tetradecanoyl]amino-3-O-(10-phenyldecanoyl)-4-O-sulfo-D-glucopyranose] | 95% | 28 | 
4 | CCCCCCCCCCC[C@H](CC(=O)N[C@H]1C(O)O[C@H](CO)[C@@H](OS(=O)(=O)O)[C@@H]1OC(=O)CCCCCCCCc1ccccc1)OC(=O)CCCCCCCCc1ccccc1 (stereo partly drawn) [1(h), 2-deoxy-2-[3R-(9-phenylnonanoyloxy)tetradecanoyl]amino-3-O-(9-phenylnonanoyl)-4-O-sulfo-D-glucopyranose] | 81% | 37 | 
5 | CCCCCCCCCCC[C@@H](CC(=O)N[C@H]1C(O)O[C@H](CO)[C@@H](OS(=O)(=O)O)[C@@H]1OC(=O)CCCCCCCCc1ccc(Cl)cc1)OC(=O)CCCCCCCCc1ccc(Cl)cc1 (stereo partly drawn) [1(j), 2-deoxy-2-[3S-[9-(4-chlorophenyl)nonanoyloxy]tetradecanoyl]amino-3-O-[9-(4-chlorophenyl)nonanoyl]-4-O-sulfo-D-glucopyranose] | 69% | 25 | 
6 | O=C(C[C@H](CCCCCCc1ccccc1)OC(=O)CCCCCCCCc1ccccc1)N[C@H]1C(O)O[C@H](CO)[C@@H](OS(=O)(=O)O)[C@@H]1OC(=O)CCCCCCCCc1ccccc1 (stereo partly drawn) [1(r), 2-deoxy-2-[3S-(9-phenylnonanoyloxy)-9-phenylnonanoyl]amino-3-O-(9-phenylnonanoyl)-4-O-sulfo-D-glucopyranose] | 86% | 17 | 
7 | CCCCCCCCCCC[C@H](CC(=O)N[C@H]1CO[C@H](CO)[C@@H](OS(=O)(=O)O)[C@@H]1OC(=O)CCCCCCCCc1ccccc1)OC(=O)CCCCCCCCc1ccccc1 [1(s), 2-deoxy-2-[3R-(9-phenylnonanoyloxy)tetradecanoyl]amino-3-O-(9-phenylnonanoyl)-4-O-sulfo-1,5-anhydro-D-glucitol] | 100% | 58 | 
8 | CCCCCCCCCCC[C@H](CC(=O)N[C@H]1[C@H](OC)O[C@H](CO)[C@@H](OS(=O)(=O)O)[C@@H]1OC(=O)CCCCCCCCc1ccccc1)OC(=O)CCCCCCCCc1ccccc1 [1(t), 2-methyl-2-deoxy-2-[3R-(9-phenylnonanoyloxy)tetradecanoyl]amino-3-O-(9-phenylnonanoyl)-4-O-sulfo-β-D-glucopyranoside] |  | 50 | Survival period (RLδ1 tumor; 1 mg/body ip): 51.8 ± 20.1 days; Survival period (RLδ1 tumor; 3 mg/body ip): 54.0 ± 18.4 days; effect on tumor regression (RLδ1 tumor; 3 mg/body, Day 14 (4 day after administration)): significant effect; Appearent tumor weight (RLδ1 tumor; dose 1 (mg/kg as printed) ip, Day 10 (first column)): 0.226 ± 0.082 g; Appearent tumor weight (RLδ1 tumor; dose 1 (mg/kg as printed) ip, second column printed Day 10): 0.241 ± 0.257 g; Appearent tumor weight (RLδ1 tumor; dose 1 (mg/kg) ip, Day 13): 0.383 ± 0.583 g; Appearent tumor weight (RLδ1 tumor; dose 3 (mg/kg as printed) ip, Day 10 (first column)): 0.213 ± 0.041 g; Appearent tumor weight (RLδ1 tumor; dose 3 (mg/kg as printed) ip, second column printed Day 10): 0.159 ± 0.092 g; Appearent tumor weight (RLδ1 tumor; dose 3 (mg/kg) ip, Day 13): 0.147 ± 0.153 g
9 | CCCCCCCCCCC[C@@H](CC(=O)N[C@H]1CO[C@H](C)[C@@H](OS(=O)(=O)O)[C@@H]1OC(=O)CCCCCCCCc1ccccc1)OC(=O)CCCCCCCCc1ccccc1 [Example 2, 2,6-deoxy-2-[3S-(9-phenylnonanoyloxy)tetradecanoyl]amino-3-O-(9-phenynonanoyl)-4-O-sulfo-1,5-anhydro-D-glucitol] |  | 33 | 
